# Measured values from patent publication US20040122083A1, “Antitubulin assembly and cell growth inhibitor denominated "dioxostatin"” (priority 2003, published 2004).
# Like-named read-outs stand apart in the source and are kept apart here.
# Experiments:
# SK-N-SH = experiment: Human cancer cell line growth inhibition, Neuroblast SK-N-SH; assay type: cell-based; conditions: for GI50: Homo sapiens
# OVCAR-3 = experiment: Human cancer cell line growth inhibition, Ovarian OVCAR-3; assay type: cell-based; conditions: for GI50: Homo sapiens
# BXPC-3 = experiment: Human cancer cell line growth inhibition, Pancreas-a BXPC-3; assay type: cell-based; conditions: for GI50: Homo sapiens
# SW1736 = experiment: Human cancer cell line growth inhibition, Thyroid ca SW1736; assay type: cell-based; conditions: for GI50: Homo sapiens, SW-1736
# KM20L2 = experiment: Human cancer cell line growth inhibition, Colon KM20L2; assay type: cell-based; conditions: for GI50: Homo sapiens, KM-20L2
# A498 = experiment: Human cancer cell line growth inhibition, Renal A498; assay type: cell-based; conditions: for GI50: Homo sapiens
# DU-145 = experiment: Human cancer cell line growth inhibition, Prostate DU-145; assay type: cell-based; conditions: for GI50: Homo sapiens
# [1] = test system: the ten bacteria and fungi tested; experiment: Disk susceptibility testing, whole panel; assay type: cell-based; conditions: at 100 μg/disk
# Source text: (§1) Antimicrobial susceptibility testing. […] Eur. J. Med. Chem. 1998, 33, 71-77).
# FADU = experiment: Human cancer cell line growth inhibition, Pharynx-sq FADU; assay type: cell-based; conditions: for GI50: Homo sapiens, FaDu
# SF-295 = experiment: Human cancer cell line growth inhibition, CNS SF-295; assay type: cell-based; conditions: for GI50: Homo sapiens
# NCI-H460 = experiment: Human cancer cell line growth inhibition, Lung-NSC NCI-H460; assay type: cell-based; conditions: for GI50: Homo sapiens
# solid tumors = conditions: cited from earlier work
# tubulin [2] = molecular target: T1, tubulin (Bos taurus, UniProt P81947+Q6B856); experiment: Inhibition of [3H]colchicine binding to tubulin
# T1 sequence (Q6B856 whole entry): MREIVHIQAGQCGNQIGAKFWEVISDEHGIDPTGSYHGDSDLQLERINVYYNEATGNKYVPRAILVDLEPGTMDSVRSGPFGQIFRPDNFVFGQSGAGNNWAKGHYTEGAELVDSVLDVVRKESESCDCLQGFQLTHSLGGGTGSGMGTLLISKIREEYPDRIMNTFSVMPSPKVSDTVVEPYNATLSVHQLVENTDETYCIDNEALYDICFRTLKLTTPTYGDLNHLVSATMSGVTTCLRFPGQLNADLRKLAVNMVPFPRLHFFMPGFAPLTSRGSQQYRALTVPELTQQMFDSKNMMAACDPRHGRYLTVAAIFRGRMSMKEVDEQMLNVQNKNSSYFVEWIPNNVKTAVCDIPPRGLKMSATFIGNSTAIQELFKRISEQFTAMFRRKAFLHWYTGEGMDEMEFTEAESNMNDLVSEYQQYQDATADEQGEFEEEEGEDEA
# T1 sequence (P81947 whole entry): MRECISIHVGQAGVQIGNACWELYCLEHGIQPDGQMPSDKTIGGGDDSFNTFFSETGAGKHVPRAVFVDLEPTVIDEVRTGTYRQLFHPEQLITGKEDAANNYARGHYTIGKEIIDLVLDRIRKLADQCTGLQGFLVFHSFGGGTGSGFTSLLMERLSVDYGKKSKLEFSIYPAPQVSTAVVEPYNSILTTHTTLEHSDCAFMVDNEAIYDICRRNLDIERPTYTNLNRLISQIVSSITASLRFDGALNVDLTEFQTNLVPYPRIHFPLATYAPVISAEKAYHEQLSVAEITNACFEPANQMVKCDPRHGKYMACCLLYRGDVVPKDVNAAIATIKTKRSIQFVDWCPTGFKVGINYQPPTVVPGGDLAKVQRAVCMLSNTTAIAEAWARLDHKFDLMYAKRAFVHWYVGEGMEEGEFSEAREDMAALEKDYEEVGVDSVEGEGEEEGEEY
# Experimental: (§2) Tubulin assays. The tubulin polymerizion and colchicine binding experiments were performed as described previously (See: Verdier-Pinard, P.; Lai, J -Y.; Yoo, H -D.; Yu, J.; Marquez, B.; Nagle, D. G.; Nambu, M.; White, J. D.; Falck, J. R; Gerwick, W. H.; Day, B. W.; Hamel, E. Mol. Pharmacol. 1998, 53, 62-76). However, in the polymerization assays Beckman DU7400/7500 spectrophotometers equipped with “high performance” temperature controllers were used. […] Temperature changes were, however, more rapid, with the jump from the lower temperature to 30EC taking about 20 sec and the reverse jump about 100 sec.
# colchicine binding = conditions: at equal concentrations; cited from earlier work
# Neisseria gonorrhoeae = experiment: Disk susceptibility testing; assay type: cell-based
# Source text: as §1
# Staphylococcus aureus = experiment: Disk susceptibility testing; assay type: cell-based
# Source text: as §1
# tubulin [3] = molecular target: T1, tubulin; experiment: Inhibition of tubulin polymerization (assembly); assay type: biochemical
# Experimental: as §2
# Aqueous solubility = assay type: physicochemical
# Streptococcus pneumoniae = experiment: Disk susceptibility testing; assay type: cell-based
# Source text: as §1
# cancer cell growth = conditions: cited from earlier work; for activity as cancer cell growth inhibitors: initial finding
# Candida albicans = test system: Candida albicans
# Source text: as §1
# Cryptococcus neoformans = test system: Cryptococcus neoformans
# Source text: as §1
# [4] = test system: Stenotrophomonas maltophilia
# Source text: as §1
# [5] = read-out: % Inhibition Colchicine binding ± SD
# [6] = Table IV and text, read-out: Inhibition of Tubulin Assembly IC50 ± SD
# [7] = Table II, tubulin concentration 10 μM, read-out: Inhibition of tubulin Polymerization IC50 ± SD
smiles,measurement,setting,value
"COc1ccc([C@@H](O)[C@H](O)c2cc(OC)c(OC)c(OC)c2)c(O)c1O [(R,R)-3b, (1R,2R)-1,2-Dihydroxy-1-(2′,3′-dihydroxy-4′-methoxyphenyl)-2-(3″,4″,5″-trimethoxyphenyl)-ethane]",GI50,SK-N-SH,3.1 µg/mL
same,GI50,OVCAR-3,7.2 µg/mL
same,GI50,BXPC-3,> 10 µg/mL
same,GI50,SW1736,> 10 µg/mL
same,GI50,KM20L2,7 µg/mL
same,melting point,,64 to 66 °C
same,GI50,A498,> 10 µg/mL
same,GI50,DU-145,> 10 µg/mL
same,"Microbe(s) inhibited, whole panel",[1],"* (at 100 μg/disk, no inhibition of the ten bacteria and fungi tested)"
same,GI50,FADU,4.9 µg/mL
same,GI50,SF-295,2.6 µg/mL
same,GI50,NCI-H460,7.9 µg/mL
COc1ccc(/C=C\c2cc(OC)c(OC)c(OC)c2)cc1OP(=O)([O-])[O-].[Na+].[Na+] [Compound 1d],vascular shutdown within metastatic tumors,solid tumors; doses one-tenth of the maximum tolerated dose,complete vascular shutdown
"COc1ccc(/C=C\c2cc(OC)c(OC)c(OC)c2)c(O)c1O [Compound 1a, combretastatin A-1, reference compound]",inhibition at 1 µM,tubulin [2]; [5],89 ± 3%
same,inhibition at 5 µM,tubulin [2]; [5],99.6%
same,inhibition of colchicine binding,colchicine binding,~99%
same,Minimum inhibitory Concentration,Neisseria gonorrhoeae,25-50 μg/disk
same,Minimum inhibitory Concentration,Staphylococcus aureus,50-100 μg/disk
same,"degree of reduction, vascular shutdown within solid tumors",solid tumors,50%
"COc1ccc([C@H]2OCO[C@@H]2c2cc(OC)c(OC)c(OC)c2)c(O)c1O [(R,R)-10a, (4R,5R)-4-(2′,3′-Dihydroxy-4′-methoxyphenyl)-5-(3″,4″,5″-trimethoxyphenyl)-1,3-dioxolane]",Ovarian OVCAR-3 GI50,OVCAR-3,>10 µg/mL
same,% Inhibition Colchicine binding ± SD,tubulin [2]; 5 μM Inhibitor,14 ± 5%
same,% Inhibition Colchicine binding ± SD,tubulin [2]; 50 μM Inhibitor,57 ± 0.8%
same,Pancreas-a BXPC-3 GI50,BXPC-3,>10 µg/mL
same,Colon KM20L2 GI50,KM20L2,>10 µg/mL
same,Prostate DU-145 GI50,DU-145,>10 µg/mL
same,IC50,tubulin [3]; [6],5.7 ± 0.8 µM
same,CNS SF-295 GI50,SF-295,5.0 µg/mL
same,Lung-NSC NCI-H460 GI50,NCI-H460,>10 µg/mL
"COc1cc([C@@H]2OCO[C@H]2c2ccc(OC)c(OP(=O)([O-])[O-])c2OP(=O)([O-])[O-])cc(OC)c1OC.[Na+].[Na+].[Na+].[Na+] [(S,S)-21, Tetrasodium-(4S,5S)-4-(2′,3′-O-diphosphonate-4′-methoxyphenyl)-5-(3″,4″,5″-trimethoxyphenyl)-1,3-dioxolane]",GI50,OVCAR-3,2.6 µg/mL
same,GI50,BXPC-3,> 10 µg/mL
same,GI50,KM20L2,> 10 µg/mL
same,GI50,DU-145,2.9 µg/mL
same,solubility,Aqueous solubility,> 35 mg/mL
same,GI50,SF-295,3.2 µg/mL
same,GI50,NCI-H460,3.4 µg/mL
"COc1ccc([C@H](O)[C@@H](O)c2cc(OC)c(OC)c(OC)c2)c(O)c1O [(S,S)-4b]",GI50,SK-N-SH,3.8 µg/mL
same,GI50,OVCAR-3,> 10 µg/mL
same,GI50,BXPC-3,> 10 µg/mL
same,GI50,SW1736,> 10 µg/mL
same,GI50,KM20L2,> 10 µg/mL
same,melting point,,64 to 66 °C
same,GI50,A498,> 10 µg/mL
same,GI50,DU-145,> 10 µg/mL
same,Minimum inhibitory Concentration,Neisseria gonorrhoeae,25-50 μg/disk
same,GI50,FADU,> 10 µg/mL
same,GI50,SF-295,2.9 µg/mL
same,GI50,NCI-H460,> 10 µg/mL
"COc1ccc([C@@H](O)[C@H](O)c2cc(OC)c(OC)c(OC)c2)cc1O [(R,R)-3a]",Neuroblast SK-N-SH GI50,SK-N-SH,1.5 µg/mL
same,Ovarian OVCAR-3 GI50,OVCAR-3,4.5 µg/mL
same,Pancreas-a BXPC-3 GI50,BXPC-3,>10 µg/mL
same,Thyroid ca SW1736 GI50,SW1736,6.1 µg/mL
same,Colon KM20L2 GI50,KM20L2,8.2 µg/mL
same,Renal A498 GI50,A498,>10 µg/mL
same,Prostate DU-145 GI50,DU-145,3.5 µg/mL
same,Minimum inhibitory Concentration,Streptococcus pneumoniae,50-100 μg/disk
same,IC50,tubulin [3]; [7],> 40 µM
same,Pharynx-sq FADU GI50,FADU,2.1 µg/mL
same,CNS SF-295 GI50,SF-295,5.7 µg/mL
same,Lung-NSC NCI-H460 GI50,NCI-H460,4.4 µg/mL
"COc1ccc(/C=C/c2cc(OC)c(OC)c(OC)c2)c(O)c1O [Compound 2b, E-combretastatin A-1]",activity as cancer cell growth inhibitors,cancer cell growth,moderately active
same,Minimum inhibitory Concentration,Streptococcus pneumoniae,50-100 μg/disk
same,Minimum inhibitory Concentration,Neisseria gonorrhoeae,6.25-12.5 μg/disk
same,Minimum inhibitory Concentration,Candida albicans,50-100 μg/disk
same,Minimum inhibitory Concentration,Cryptococcus neoformans,50-100 μg/disk
same,Minimum inhibitory Concentration,[4],50-100 μg/disk
COc1ccc(/C=C/c2cc(OC)c(OC)c(OC)c2)cc1O [Compound 2d],activity as cancer cell growth inhibitor,cancer cell growth; freshly prepared solutions in dimethyl sulfoxide,inactive
same,activity as cancer cell growth inhibitors,cancer cell growth,moderately active
same,"Microbe(s) inhibited, whole panel",[1],"* (at 100 μg/disk, no inhibition of the ten bacteria and fungi tested)"
"COc1ccc([C@H](O)[C@@H](O)c2cc(OC)c(OC)c(OC)c2)cc1O [(S,S)-4a]",Neuroblast SK-N-SH GI50,SK-N-SH,0.28 µg/mL
same,Ovarian OVCAR-3 GI50,OVCAR-3,0.38 µg/mL
same,Pancreas-a BXPC-3 GI50,BXPC-3,3.9 µg/mL
same,Thyroid ca SW1736 GI50,SW1736,1.8 µg/mL
same,Colon KM20L2 GI50,KM20L2,0.52 µg/mL
same,Renal A498 GI50,A498,0.91 µg/mL
same,Prostate DU-145 GI50,DU-145,2.1 µg/mL
same,Minimum inhibitory Concentration,Streptococcus pneumoniae,25-50 μg/disk
same,IC50,tubulin [3]; [7],14 ± 2 µM
same,Pharynx-sq FADU GI50,FADU,0.60 µg/mL
same,CNS SF-295 GI50,SF-295,0.52 µg/mL
same,Lung-NSC NCI-H460 GI50,NCI-H460,2.5 µg/mL
"COc1ccc(/C=C\c2cc(OC)c(OC)c(OC)c2)cc1O [Compound 1b, combretastatin A-4]","degree of reduction, vascular shutdown within solid tumors",solid tumors,70%
"COc1ccc([C@@H]2OCO[C@H]2c2cc(OC)c(OC)c(OC)c2)c(O)c1O [(S,S)-9a, (4S,5S)-4-(2′,3′-dihydroxy-4′-methoxyphenyl)-5-(3″,4″,5″-trimethoxyphenyl)-1,3-dioxolane]",Ovarian OVCAR-3 GI50,OVCAR-3,4.3 µg/mL
same,% Inhibition Colchicine binding ± SD,tubulin [2]; 1 μM Inhibitor,67 ± 6%
same,% Inhibition Colchicine binding ± SD,tubulin [2]; 5 μM Inhibitor,91 ± 1%
same,Pancreas-a BXPC-3 GI50,BXPC-3,5.4 µg/mL
same,Colon KM20L2 GI50,KM20L2,5.0 µg/mL
same,Prostate DU-145 GI50,DU-145,3.0 µg/mL
same,IC50,tubulin [3]; [6],0.59 µM
same,CNS SF-295 GI50,SF-295,2.9 µg/mL
same,Lung-NSC NCI-H460 GI50,NCI-H460,>10 µg/mL
